Patent publication US20240390356A1, “HALOPERIDOL FOR USE IN THE TREATMENT OF SPINAL MUSCULAR ATROPHY” (UNIVERSITAT DE VALÈNCIA, priority 2021, published 2024)
Where “and” joins values, the source holds several entries; their conditions need not be identical. Identical values can stand only once.

Columns and labels:
[1] = system: myoblasts derived from SMA type II patients (KM1150SMAII7PV); assay: Fusion index of immortalized myoblasts derived from SMA type II patients; format: cell-based, human; details: 72 h, healthy myoblasts about 68%, patient myoblasts 50%
Description: Fusion index of immortalized myoblasts derived from patients with SMA type II. […] Healthy (control; abbreviated as CON) and solvent-treated 25 SMA myoblasts (0.5% DMSO) were used to establish a difference in the differentiation process. Risdiplam at 1 μM was used as a positive control. Nuclei were labeled with 4′,6-diamidino-2-phenylindole (DAPI) and myoblasts were detected using an anti-Desmin antibody. Multinuclear myotubes are marked with white arrows. The fusion index of DMSO-treated healthy and SMA differentiated myoblasts, and compound-treated SMA myoblasts, was calculated. Data were collected after analysis of at least 100 cells and statistics were calculated using Student's t-test (*p<0.05, **p<0.01, ***p<0.001).
For myoblast immunostaining, 40,000 cells were seeded in a 24-well plate (previously covered with collagen) with 400 μl of KMEM medium and incubated overnight. The following day the medium was changed for the DMEM Glutamax 4.5 g (Gibco) differentiation medium supplemented with 2% horse serum (Sigma); penicillin (100 U/ml) and streptomycin (100 mg/ml) [1% P/S; Gibco], gentamicin (50 μg/ml; Sigma) and insulin (10 μg/ml; Sigma). […] The cells were incubated for 72 h with the compounds and fixed in 4% paraformaldehyde for 10 minutes. All cell cultures were incubated at 37° C. with 5% CO2.
Nuclei were stained with DAPI. […]

delta 7 SMA mice [2] = assay: Muscular fiber morphology of quadriceps in delta 7 SMA mice; format: in vivo; details: P12, 10 days at 0.5 mg/kg, versus sham
Description: FIG. 9. The effect of haloperidol on muscular fiber morphology in the skeletal muscles of delta 7 mice. Comparison of quadriceps fiber morphology between sham (0.9% saline solution with 2% DMSO) and haloperidol-treated delta 7 SMA mice at P12. The measurements of the muscle fiber area (A), perimeter (B), and maximum and minimum Feret's diameter of muscle fibers (C). At least 100 fibers were analyzed from each animal; the results are shown as the averages obtained from the individual animals.
We first performed morphological analyses of the H/E-stained quadriceps muscles from mice at postnatal day 12 (P12) after 10 days of treatment with haloperidol at 0.5 mg/kg and compared it to mice treated with sham. Specifically, for the morphological analysis of quadriceps skeletal muscle sections were stained with H/E, as previously described (Valsecchi et al. (2015); Rindt et al. (2015)). To morphologically evaluate mean fiber area, perimeter, minimum and maximum Feret's diameter, more than 100 fibers for each animal were drawn with Neurolucida software (MicroBrightField Inc.) and a computer-assisted microscope (Nikon Eclipse E600 microscope). Data were obtained by the associated data analysis software NeuroExplorer (MicroBrightField): we then averaged the means obtained from single animals. Images of skeletal muscles fibers were acquired with Zeiss Axioscan Z.1 digital slide scanner microscope (Carl Zeiss AG).

[3] = system: SMA motoneurons derived from hiPSCs; assay: Survival rate of hiPSC-derived SMA motoneurons (ISL1-positive cells); format: cell-based, human; details: 10 days of treatment
Description: (B) SMA MNs survival rate analysis after 10 days of treatment at a range of concentrations. […] Kenpaullone (Ken) at 10 μM was used as as positive control in those experiments.
For spinal motor neurons (MNs) differentiation from hiPSCs, we used a previously reported protocol [Maury et al., 2015]. HiPSC were incubated in suspension in a neural induction medium containing DMEM/F12 and Neurobasal medium supplemented with B27 (Life Technologies), N2 Supplement (Life Technologies), Pen-Strep 0.1%, β-Mercaptoethanol (β-ME) 0.1% (Life Technologies), Ascorbic Acid (0.5 μM, Sigma-Aldrich), Chir99021 (3 μM, Stemgent), SB431542 (20 μM, Tocris), LDN 193189 (0.2 μM, Stemgent) and Y-27632 (10 μM, Stemcell) at a density of 0.2×10^6 cells/ml in T25 flask or 0.25×10^6 cells/ml in spinner flask. After 2 days, caudalization of the neural progenitors was obtained by addition of retinoic acid (RA 0.1 μM) and smoothened agonist (SAG, 0.5 μM). After 1 week in suspension, brain-derived neurotrophic factor (BDNF, 10 ng/ml), glial-derived neurotrophic factor (GDNF, 10 ng/ml), and N-[N-(3,5-Difluorophenacetyl)-L-alanyl]-S-phenylglycine t-butyl ester (DAPT, 10 nM) were added in the medium without SB431542 and LDN193189. Between day 10 and 14, MN progenitors are converted into MNs. […]
The survival of MNs was determined by quantifying the number of ISL1-positive cells in each condition.

SMN2 FL transcript = assay: qPCR quantification of SMN2 full length (FL) transcript in SMA fibroblasts; format: cell-based, human; set-up: key to SMN2 FL isoform levels: relative expression (2^-ΔΔCt), normalized to reference gene; details: for SMN2 FL isoform levels: 48 hours, GM03813 fibroblasts, normalized to GAPDH, each of 3 samples
Description: (§1) Fibroblasts derived from SMA patients (GM03813; Coriell Cell Repositories) were grown at 37° C. in cell culture bottles with Dulbecco's Modified Eagle Medium (DMEM; Gibco) and […] glucose. The medium was supplemented with penicillin (100 U/ml) and streptomycin ([…]) [1% P/S; Gibco] and 10% inactivated fetal bovine serum (FBS; Gibco).
(§2) For RNA extraction 400,000 GM03813 fibroblasts were seeded in 60 mm culture dishes in 4 ml of supplemented DMEM medium. The following day the medium was changed, and the candidate compound was added at its maximum non-toxic concentration. The cells were incubated for 48 hours and then washed with 1× PBS and collected in sterile 1.5 ml tubes. The same was done for the evaluation of the effect of haloperidol on the level of SMN protein (example 2) with the difference that 1,000,000 fibroblasts were used in a 100 mm cell culture plate and that the cells were collected after […] with a RIPA protein extraction buffer supplemented with a protease inhibitor cocktail (cOmplete; Roche).
(§3) Extraction of RNA from cells was carried out with ReliaPrep™ RNA Cell Miniprep System (Promega), following the manufacturer's instructions. […] RNA concentration and salt contamination were measured with the NanoDrop spectrophotometer (ThermoFisher). The samples were stored at −80° C. […] of total RNA was retrotranscribed using SuperScript III retrotranscriptase (Invitrogen) following the manufacturer's instructions. Genomic DNA contamination was monitored in the RNA samples without the addition of retrotranscriptase.
(§4) For the quantification of the SMN2 full length (FL) and SMN2 without exon 7 (Δ7) transcripts, qPCR Probe Mix (Solis Biodyne) was used. The reaction was carried out in a multiplex manner, in which the signal from the SMN2 and GAPDH probe was read in a single reaction. 10 ng of cDNA was used as a standard and the concentration of both probes was 250 nM.
(§5) Primer sets for detection of SMN2 FL or Δ7 isoforms were used at a final concentration of 500 nM while the concentration of the primer set used for GAPDH was 150 nM. All reactions were carried out using a Step-One Real-Time PCR thermocycler (Applied Biosystems). In all cases, the experiment included 3 biological samples and three technical replicates for each sample. Expression levels were normalized to the reference gene using a 2-^ΔΔCt method. Primers were obtained from Naryshkin, N. A. et al. Science (2014) 345, 688-693.
(§6) The selected SMA fibroblast line has 3 copies of the SMN2 gene and homozygous deletion of Ex7-Ex8 in SMN1 and therefore only SMN2 gene transcripts were measured. The conditions for cell cultures and extraction protocols are described in Example 1.

delta 7 SMA mice [4] = assay: NMJ innervation of quadriceps muscles in delta 7 SMA mice; format: in vivo; details: mean ± SEM, sham 33.75±1.31%
[5] = system: co-culture of SMA type I motoneurons and SMA type I myoblasts; assay: Motoneurons and myoblasts co-culture (MN survival, myotube area); format: cell-based, human; details: treatment every 3 days for 7 days, versus non-treated controls
Description: SMA type I (SMA) or healthy motoneurons (MN) derived from induced pluripotent stem cells were co-cultured with SMA type I or healthy myoblasts differentiated into myotubes. […] (B) Analysis of SMA myotubes area compared to the same controls as above. […] Myotubes were marked using MF20 marker (dark green), MNs were marked with ISL1 (red), acetylcholine receptors were marked with AChR (light green) and cell nuclei were stained with Hoechst (blue).
Primary cells were isolated from skeletal muscle as described previously (Chaouch et al. 2009). These cells were expanded and differentiated as previously described. Briefly, primary and immortalized myoblasts were expanded in a mix of 199 medium/Dulbecco modified Eagles minimal essential medium (1:4 ratio) supplemented with 20% fetal bovine serum (FBS), 25 μg/mL fetuin, 0.5 ng/ml basic fibroblast growth factor, 5 ng/ml epidermal growth factor, 5 μg/mL insulin. Cells were then cultivated in a growth medium consisting of DMEM-F12 glutamax (Life Technologies) supplemented with 20% FBS (Sigma-Aldrich) and 0.1% penicillin/steptomycin (Life Technologies). Myogenic differentiation was induced by switching growth medium to DMEM supplemented with 2% horse serum (Life Technologies).
For co-culture, spinal MNs must be differentiated from hiPSC as described previously, but the embryoid bodies are dissociated at day 14 of differentiation and frozen. […]

SMA Δ7 mice = assay: Body weight and behavioral motor tests in SMA Δ7 mice; format: in vivo
Description: FIG. 4. Effect of Haloperidol treatment on weight and motor performances of SMN Δ7 mice. […] VHL (vehicle, 0.9% saline solution with 2% DMSO) n=8, HALO (haloperidol) n=5. Results are expressed as mean±SEM (two-way ANOVA, * p≤0.05; ** p≤0.01; *** p≤0.001; **** p≤0.0001).
(§7) The efficacy of Haloperidol was then tested (University of Turin, Boido et al.) in SMA Δ7 mice (purchased from Jackson Laboratory, Maine, USA; stock number 005025). This triple mutant mouse harbors two transgenic alleles and a single targeted mutant. The Tg(SMN2*delta7)4299Ahmb allele consists of a SMN cDNA lacking exon 7 whereas the Tg(SMN2)89Ahmb allele consists of the entire human SMN2 gene. […] At birth, triple mutants are noticeably smaller than normal littermates; by day 5, signs of muscle weakness appear and become progressively more pronounced over the following week as the mice display an abnormal gait, shakiness in the hind limbs and a tendency to fall over. Mean survival is approximately 13 days.
(§8) Treated SMA mice subcutaneously received 0.5 mg/Kg Haloperidol, dissolved in 2% DMSO in saline solution (HALO group), whereas control mice received an equal amount of saline solution with 2% DMSO (VHL group). Haloperidol or saline solution were daily administered, from P2 (postnatal day 2) to P12 (day of sacrifice).
During the whole period, the animals underwent a number of behavioral motor tests: tail suspension test, righting reflex, hindlimb suspension test, negative geotaxis (El-Khodor et al. 2008, Boido et al. 2018). Mice were evaluated daily starting from P2 for body weight and behavioral performances: • Tail suspension test (self-clasping): pups were suspended by the tail for 15 s, and their hind-limb posture was scored in a scale from 4 (normal) to 0 (clasping); • Righting reflex: pups were placed on their backs on a flat surface; their success or failure to reposition themselves dorsal side up was assessed over a 30 s period; • Negative geotaxis test: starting from P4, pups we placed on an inclined grid with the mouse head facing down (cut off: max 60 s).

SMN protein = SMN protein levels by Western blotting in fibroblasts derived from SMA type II patients; format: cell-based, human; details: 72 h, compared to 0.5% DMSO, single samples
Description: as §1, §2
Fibroblasts derived from SMA type Il patients were incubated with haloperidol at three concentrations for 72 h. 10 μg of protein extracted from cells treated with haloperidol were separated by electrophoresis with acrylamide/bis-acrylamide gels SDS-PAGE with the Mini-protean Electrophoresis System (Bio-Rad). After electrophoresis was carried out, the proteins were transferred to a nitrocellulose membrane (GE Healthcare) using a semi-dry electro-transfer system (Bio-Rad) for one hour with a constant voltage of 15 V. The membranes were incubated with a blocking solution (5% skim milk in PBST, 1× PBS, 0.1% Tween 20) for at least 1 h at room temperature. […]
Chemiluminescence was detected using SuperSignal West Pico Sensitivity Substrate (Pierce) and acquired with ImageQuant LAS 4000 (GE Healthcare). […] Statistical significance was calculated using the Student's t-test (* p<0.05, ** p<0.01, *** p<0.001).

SMN2 Δ7 transcript = assay: qPCR quantification of SMN2 without exon 7 (Δ7) transcript in SMA fibroblasts; format: cell-based, human; set-up: key: relative expression (2^-ΔΔCt), normalized to reference gene; details: 48 hours, GM03813 fibroblasts, normalized to GAPDH, each of 3 samples
Description: as §1, §2, §3, §4, §5, §6

SMN = SMN expression by Western Blot in tissues of SMA Δ7 mice at P12; format: in vivo; details: P12, 0.5 mg/Kg s.c. daily
Description: FIG. 5. Analysis of SMN expression by Western Blot.
as §7, §8
At P12, Halo and VHL animals were sacrificed, and fresh spinal cords and some skeletal muscles (diaphragm, quadriceps, and gastrocnemius) were rapidly dissected. We then verified the effect of Haloperidol on SMN expression on these samples. Tissues were homogenized on ice using a pestle homogenizer in radioimmunoprecipitation assay buffer (RIPA lysis buffer) (Merck Life Sciences) supplemented with 1 mM PMSF, 1 mM DTT, 2 mM sodium orthovanadate (ThermoFisher Scientific) and 1× cOmplete™ Protease Inhibitor Cocktail (Merck Life Sciences). Sample homogenates were incubated on ice for 20 min before being centrifuged for the insoluble material separation at 14,000×g for 20 min at 4° C. Total protein concentration was assayed on supernatants using Bradford reagent (Bio-Rad). Protein denaturation was performed with NuPAGER LDS Sample Buffer supplemented with NuPAGE® Sample Reducing Agent (ThermoFisher Scientific), by heating at 95° C. for 5 min. SDS-PAGE and transfer were performed on 4-20% Mini-PROTEAN® TGX™ Precast Protein Gels and Trans-Blot® Turbo™ mini nitrocellulose membranes using a Trans-Blot® Turbo™ transfer System (Bio-Rad), respectively. Nonspecific binding sites were blocked using 5% nonfat dried milk in PBS-0.2% Tween-20 (Merck Life Sciences) (PBS-T) for 1 h at RT under shaking. […] Immunolabeling was detected with Clarity™ Western ECL Blotting Substrates (Bio-Rad) using the ChemiDoc™ imaging system (Bio-Rad). Densitometric quantitation of bands was performed with Fiji (Image J, NIH).

[6] = 0.5 mg/Kg subcutaneously daily P2 to P12, versus VHL

Structure (SMILES): Cc1cn2nc(-c3cc(=O)n4cc(N5CCNC6(CC6)C5)ccc4n3)cc(C)c2n1 [risdiplam]
- fusion index ([1]; 1 μM (positive control)): 66.7%

Structure (SMILES): O=C(CCCN1CCC(O)(c2ccc(Cl)cc2)CC1)c1ccc(F)cc1 [haloperidol]
- increase in Max Feret's diameter (delta 7 SMA mice [2]): +40%
- increase in fiber area (delta 7 SMA mice [2]): +104%
- increase in fiber perimeter (delta 7 SMA mice [2]): +43%
- increase in min Feret's diameter (delta 7 SMA mice [2]): +49%
- SMA motoneurons survival rate ([3]; 0.32 μM): almost completely rescue
- SMA motoneurons survival rate compared with positive control ([3]; versus kenpaullone at 10 μM): more efficient than the positive control kenpaullone
- SMN2 FL isoform levels (SMN2 FL transcript; 10 μM): 1.10 and 1.03 and 1.06
- SMN2 FL isoform levels (SMN2 FL transcript; 25 μM): 1.15 and 1.37 and 1.07
- SMN2 FL isoform levels (SMN2 FL transcript; 37.5 μM): 1.32 and 1.47 and 1.51
- SMN2 FL isoform levels (SMN2 FL transcript; 50 μM): 2.54 and 2.11 and 2.33
- amount of FL SMN2 transcript (SMN2 FL transcript; at the highest concentration): doubled
- fusion index ([1]; 2.5 μM): 66.7%
- denervated endplates (delta 7 SMA mice [4]): 9.50±1.50%
- area of myotubes in co-culture [5]: increases the area of myotubes
- survival rate of SMA MNs in co-culture [5]: increases the survival rate of SMA MNs
- body weight (SMA Δ7 mice; [6]): significant weight increase
- negative geotaxis test (SMA Δ7 mice; [6]): improved motor performances
- righting reflex test (SMA Δ7 mice; [6]): improved motor performances
- tail suspension test (SMA Δ7 mice; [6]): improved motor performances
- side effects (behavioral changes or sedation phenotypes) (SMA Δ7 mice; murine SMA model, haloperidol administration): not associated with any conspicuously deleterious or undesirable side effects
- SMN protein levels (SMN protein; 25 μM): 1.132 and 1.751 and 1.745
- SMN protein levels (SMN protein; 37.5 μM): 2.265 and 2.211 and 2.469
- SMN protein levels (SMN protein; 50 μM): 2.413 and 2.453 and 2.614
- SMN2 Δ7 isoform levels (SMN2 Δ7 transcript; 10 μM): 0.90 and 0.89
- SMN2 Δ7 isoform levels (SMN2 Δ7 transcript; 25 μM): 1.00 and 1.06 and 1.04
- SMN2 Δ7 isoform levels (SMN2 Δ7 transcript; 37.5 μM): 0.96 and 1.01 and 1.03
- SMN2 Δ7 isoform levels (SMN2 Δ7 transcript; 50 μM): 1.89 and 1.23
- SMN expression increase compared to VHL (SMN; diaphragm): 23%
- SMN expression increase compared to VHL (SMN; gastrocnemius): 102%
- SMN expression increase compared to VHL (SMN; quadriceps): 123%
- SMN expression increase compared to VHL (SMN; spinal cord): 58%
